Patent US20220177485A1, “CAMPTOTHECIN DERIVATIVE, PREPARATION METHOD THEREFOR AND APPLICATION THEREOF” (MARINE BIOMEDICAL RESEARCH INSTITUTE OF QINGDAO CO., LTD., priority 2018, published 2022)
Several values for one entry are separate records, joined by “and”; a condition that tells them apart may be missing. Equal entries are not always repeated. Where two headings read alike, the source gives them in different places. Marks after values point to notes of the source that are not given here.

Columns and labels:
[1] = tested on: HCT-116 transplanted tumors; settings: for Inhibitory rate: day 23; for Tumor volume size: day 23, x ± SE
Experimental: Digesting collecting cells after the desired amount of cells. Diluting the cells into 250 million/ml cell suspension with 5 A culture medium containing 10% fetal bovine serum. […] Stay around tumor growth to 1 g tissue block, cutting short diameter growth of around 1 mm plaque, by inserting a catheter method. […] Compound of low dose group and high dose group were given by gavages once a week, respectively. The group of irinotecan and 5-fluorouracil were treated by intravenous every three days. Recording changes in body weight in mice, and tumors size three times a week.

[2] = tested on: K562 cells (human chronic myeloid leukemia cells); assay: growth inhibition of tumor cells in vitro, K562; assay type: cell-based; settings: K562 cell line, read-out: IC50 K562
Description: (§1) We tested compounds target a variety of tumor cell for the growth inhibition to show its antitumor activity by using the method of the field technicians known. Chooses the tumor cell lines include: A549 cell non-small cell lung cancer cell line (people), K562 cells (human chronic myeloid leukemia cells), NCI-H1975 cells (non-small cell lung adenocarcinoma cancer cell), MDA-MB-231 cells (human breast cancer cells) and HCT-116 cells (human colon cancer cells).

[3] = tested on: A549 lung transplantation tumor model and RM-1 (prostate) transplantation tumor model; assay: antitumor activity in vivo, transplanted tumor models in kunming mice; settings: intraperitoneal injection
Experimental: Using the known in the field of technology, the antitumor activity of compounds in vivo was tested in kunming mice transplanted tumor model. The transplantation tumor models tested including A549 lung transplantation tumor model and RM-1 (prostate) transplantation tumor model. We conducted the tests by intraperitoneal injection.

[4] = tested on: NCI-H1975 cells (non-small cell lung adenocarcinoma cancer cell); assay: growth inhibition of tumor cells in vitro, NCI-H1975; assay type: cell-based; settings: Homo sapiens
Description: as §1

[5] = tested on: MDA-MB-231 cells (human breast cancer cells); assay: growth inhibition of tumor cells in vitro, MDA-MB-231; assay type: cell-based; settings: Homo sapiens
Description: as §1

[6] = tested on: HCT-116 cells (human colon cancer cells); assay: cells; assay type: cell-based; settings: for IC50: Homo sapiens
Description: as §1

[7] = molecular target: heat shock protein (HSP90); assay: macromolecular interaction on chip, HSP90; assay type: binding; settings: compound fixed on the chip; HSP90 100 nM
Experimental: (§2) The experimental scheme: 1. Fixed the compounds on the chip:
(§3) Mobile phase were EGF (1 μM), FGF (1 μM), HSP90 (100 nM), FKBP12 (100 nM).
(§4) Detection whether small molecule compounds combined with the provided protein of heat shock protein (HSP90), epidermal growth factor (EGF) and fibroblast growth factor (FGF); and provide relevant data of combined dynamics.

[8] = molecular target: T1, epidermal growth factor (EGF) (Homo sapiens, UniProt P01133); assay: macromolecular interaction on chip, EGF; assay type: binding; settings: for KD EGF: compound fixed on the chip, EGF 1 μM
T1 construct: epidermal growth factor (EGF)
Experimental: as §2, §3, §4

[9] = molecular target: fibroblast growth factor (FGF); assay: macromolecular interaction on chip, FGF; assay type: binding; settings: compound fixed on the chip; FGF 1 μM
Experimental: as §2, §3, §4

[10] = tested on: A549 cell non-small cell lung cancer cell line; assay: growth inhibition of tumor cells in vitro, A549; assay type: cell-based, human; settings: Homo sapiens, A549, A549 cell line; read-out: IC50 A549
Description: as §1

[11] = 20 mg/kg intravenous every three days
[12] = NCI-H1975, read-out: IC50 NCI-H1975
[13] = MDA-MB-231, read-out: IC50 MDA-MB-231
[14] = HCT-116, read-out: IC50 HCT-116
[15] = NCI-H1975 cell line, read-out: IC50 NCI-H1975
[16] = MDA-MB-231 cell line, read-out: IC50 MDA-MB-231
[17] = HCT-116 cell line, read-out: IC50 HCT-116

T1 sequence (P01133 971-1023 limits assumed, species assumed): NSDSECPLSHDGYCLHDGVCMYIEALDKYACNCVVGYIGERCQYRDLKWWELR

Structure (SMILES)	antitumor activity in vivo compared with topotecan [3]	KD HSP90 [7]	KD EGF [8]	KD FGF [9]	IC50 [4, 15] [nM]	IC50 [5, 16] [nM]	IC50 [6, 17] [nM]	also measured
O=c1[nH]cc(F)c(=O)[nH]1 [5 - fluorouracil, 5-fluorouracil, reference compound]								Inhibitory rate [1, 11]: 55.64^a %; Tumor volume size [1, 11]: 342.28 ± 128.00^a mm^3
CC[C@@]1(O)C(=O)OCc2c1cc1n(c2=O)Cc2c-1nc1cc3c(cc1c2CCc1ccc(N2CCCC2)c(F)c1)OCO3 [Compound 11, 20(S)-7-(3-fluoro-4-(pyrrolidin-1-yl))-10,11-methylenedioxy-camptothecin]	better than that of topotecan							IC50 [2]: 305 ± 8.75 nM; melting point: > 250 °C
CC[C@@]1(O)C(=O)OCc2c1cc1n(c2=O)Cc2c-1nc1cc3c(cc1c2CCc1ccccc1N1CCOCC1)OCO3 [Compound 15]	better than that of topotecan							melting point: > 250 °C
CC[C@@]1(O)C(=O)OCc2c1cc1n(c2=O)Cc2c-1nc1cc3c(cc1c2-c1ccncc1)OCO3 [Compound 21, 20(S)-7-(pyridin-4-yl)-10,11-methylenedioxy-camptothecin]		No combination	can combine	can combine				IC50 [4, 12]: 20.4 ± 3.65 nM; IC50 [5, 13]: 4.92 ± 0.36 nM; IC50 [6, 14]: 0.74 ± 0.07 nM; Kd [8]: 49.3 nM; Kd [9]: 18.9 nM
CC[C@@]1(O)C(=O)OCc2c1cc1n(c2=O)Cc2c-1nc1cc3c(cc1c2-c1ccoc1)OCO3 [Compound 23, 20(S)-7-(furan-3-yl)-10,11-methylenedioxy-camptothecin]	better than that of topotecan	No combination	No combination	No combination	95.5 ± 5.57	83.8 ± 6.64	2.97 ± 0.25	mice weight change ([1]; high and low dose group, weight returned after 10 days but still lower than control): declined; Tumor volume size ([1]; high dose 5 mg/kg, gavage once a week): 19.94 ± 2.17*^a mm^3; Inhibitory rate ([1]; high dose 5 mg/kg, gavage once a week, 5 mg/kg): 87.04% and 95.45^a %; Tumor volume size ([1]; low dose 2.5 mg/kg, gavage once a week): 100.52 ± 20.45*^a mm^3; Inhibitory rate ([1]; low dose 2.5 mg/kg, gavage once a week, 2.5 mg/kg): 95.45% and 87.04^a %
CC[C@@]1(O)C(=O)OCc2c1cc1n(c2=O)Cc2c-1nc1cc3c(cc1c2-c1ccsc1)OCO3 [Compound 24, 20(S)-7-(thiophene-3-yl)-10,11-methylenedioxy-camptothecin]		No combination	No combination	No combination	16.2 ± 0.83	1.93 ± 0.26	0.21 ± 0.02	ranking of cytotoxic activity in HCT-116 [6]: best cytotoxic activity
CC[C@@]1(O)C(=O)OCc2c1cc1n(c2=O)Cc2c-1nc1cc3c(cc1c2-c1cnn(C)c1)OCO3 [Compound 25, 20(S)-7-(1-methyl-1H-pyrazol-4-yl)-10,11-methylenedioxy-camptothecin]		No combination	No combination	No combination	35.2 ± 3.15	3.76 ± 1.08	0.34 ± 0.06	
CC[C@@]1(O)C(=O)OCc2c1cc1n(c2=O)Cc2c-1nc1cc3c(cc1c2-c1ccc2[nH]ccc2c1)OCO3 [Compound 29]								IC50 [4, 12]: 79.7 ± 3.52 nM; IC50 [5, 13]: 7.98 ± 0.72 nM; IC50 [6, 14]: 1.84 ± 0.11 nM
CC[C@@]1(O)C(=O)OCc2c1cc1n(c2=O)Cc2c-1nc1cc3c(cc1c2-c1ccnn1C)OCO3 [Compound 30]								IC50 [4, 12]: 37.3 ± 2.82 nM; IC50 [5, 13]: 43.4 ± 2.18 nM; IC50 [6, 14]: 0.93 ± 0.08 nM
CC[C@@]1(O)C(=O)OCc2c1cc1n(c2=O)Cc2c-1nc1cc3c(cc1c2CCN1CCOCC1)OCO3 [Compound 51, 20(S)-7-(2-morpholinoethyl)-10,11-methylenedioxy-camptothecin]	better than that of topotecan	No combination	can combine	can combine				IC50 [2]: 13 ± 3.25 nM; Kd [8]: 4.15 nM; Kd [9]: 46 nM
CCc1c2c(nc3ccc(OC(=O)N4CCC(N5CCCCC5)CC4)cc13)-c1cc3c(c(=O)n1C2)COC(=O)[C@]3(O)CC [Irinotecan, reference compound]								Inhibitory rate ([1]; 6 mg/kg intravenous every three days): 78.12^a %
CC[C@@]1(O)C(=O)OCc2c1cc1n(c2=O)Cc2cc3c(CN(C)C)c(O)ccc3nc2-1 [Topotecan, reference compound]		No combination	No combination	No combination	> 500	123 ± 18.2	> 500	IC50 [10]: 559 ± 8.6 nM; IC50 [2]: 636 ± 8.95 nM
